From ChEMBL document CHEMBL6096739, “The Myxobacterial Genus Archangium: A Prolific and Underexploited Source of Bioactive Secondary Metabolites” (J Med Chem, 2025)
Values after ≈ are worked out from the molar mass of the structure shown. Numbered stars: 1 amine (or outer) side, 2 acyl side, 3 side chain; on linkers, the order of the positions; unused ones are H or OH. Square brackets hold non-standard residues; d marks the D form. Peptide text beside a SMILES is read from it. X1 = COc1cccc2[nH]c(C)c(C[C@H](N[*:1])C(=O)[*:2])c12; dAla(ψthiazole) = C[C@@H](N[*:1])c1nc(C(=O)[*:2])cs1; Trp(4-OMe) = COc1cccc2[nH]cc(C[C@H](N)C(=O)O)c12; X2 = O=C(c1csc([C@@H](CO)N[*:1])n1)[*:2]; GlyΨ(Thz) = O=C(c1csc(CN[*:1])n1)[*:2]; dAbu = CC[C@@H](N)C(=O)O; Dha = C=C(N)C(=O)O; Sar = CNCC(=O)O

How the values were obtained:
U-937 = test: Cytotoxicity activity against human U-937 cells assessed as reduction in cell viability measured after 24 hrs by CCK-8 assay; assay type: functional, cell-based
HCT-116 = test: Cytotoxicity against human HCT-116 cells assessed as reduction in cell growth measured after 72 hrs by MTT assay; assay type: functional, cell-based; settings: HCT-116, 72 h
[1] = Toxicity in po dosed rat assessed as lethal dose; assay type: organism-based; design: unit not given here; settings: in vivo
KB = test: Cytotoxicity against human KB cells assessed as reduction in cell viability measured after 72 hrs by MTT assay; assay type: functional, cell-based
Clostridium perfringens = test: Antibacterial activity against Clostridium perfringens assessed as bacterial growth inhibition after 24 hrs by microdilution method; assay type: functional
[2] = Cytotoxicity against mouse L929 cells assessed reduction in cell viability incubated for 24 hrs by MTT assay; assay type: toxicity, cell-based
Botrytis cinerea = test: Antifungal activity against Botrytis cinerea; assay type: functional
[3] = tested on: Metschnikowia pulcherrima; test: Antifungal activity against Metschnikowia pulcherrima DSM 70321; assay type: functional
[4] = tested on: Globisporangium debaryanum; test: Antifungal activity against Pythium debaryanum DSM 62946; assay type: functional
Pseudomonas aeruginosa = test: Antibacterial activity against Pseudomonas aeruginosa ATCC 27853 assessed as bacterial growth inhibition; assay type: functional, organism-based

CC[C@H](C)[C@H](NC(=O)[C@H]1CCCCN1C)C(=O)N(COC(=O)C=C(C)C)[C@H](C[C@@H](OC(C)=O)c1nc(C(=O)N[C@@H](Cc2ccc(O)cc2)C[C@H](C)C(=O)O)cs1)C(C)C
IC50 (U-937; Homo sapiens, U-937, 24 h): 0.005 nM

CC[C@H](C)[C@H](NC(=O)[C@H]1CCCCN1C)C(=O)N(COC(=O)CC(C)C)[C@H](C[C@@H](OC(C)=O)c1nc(C(=O)N[C@@H](Cc2ccccc2)C[C@H](C)C(=O)O)cs1)C(C)C [TUBULYSIN D]
IC50 (HCT-116): 0.003 nM
IC50 (U-937; Homo sapiens, U-937, 24 h): 0.005 nM

C/C=C1/NC(=O)[C@@H]2CSC(=N2)[C@@H]2CCCN2C(=O)[C@@H](CC(C)C)NC(=O)[C@H](C)NC(=O)[C@@H](O)COC(=O)[C@H](C(C)C)N(C)C(=O)[C@H]([C@@H](C)O)NC(=O)[C@@H]2CCCCN2C1=O
LD50 [1]: 2.3

C=C1NC(=O)[C@@H](CC)NC(=O)CNC(=O)[C@H](Cc2c[nH]c3cccc(OC)c23)NC(=O)[C@H](Cc2c[nH]c3ccccc23)NC(=O)c2csc(n2)[C@@H](CO)NC(=O)CN(C)C1=O (cyclo([Dha][Sar][X2]W[Trp(4-OMe)]G[dAbu]))
IC50 (KB): 5 nM

C/C=C1\NC(=O)[C@H]2CSC(=N2)[C@@H]2C[C@@H](C)N2C(=O)[C@@H](CC(C)C)NC(=O)[C@H](C)NC(=O)[C@@H](O)COC(=O)[C@H](C(C)C)N(C)C(=O)[C@H]([C@@H](C)O)NC(=O)[C@@H]2CCCCN2C1=O
LD50 [1]: 2.3

C/C1=C\C=C=CCCC/C=C/[C@H]2O[C@@H](C(=O)O[C@H](C)[C@H]1O)[C@@H](O)[C@@H]2O
MIC (Clostridium perfringens): 2.5 µg/mL (≈ 7.13 µM)

C=C1NC(=O)[C@@H](CC)NC(=O)CNC(=O)[C@H](Cc2c(C)[nH]c3cccc(OC)c23)NC(=O)[C@H](Cc2c[nH]c3ccccc23)NC(=O)c2csc(n2)[C@@H](C)NC(=O)CN(C)C1=O (cyclo(W[X1]G[dAbu][Dha][Sar][dAla(ψthiazole)]))
IC50 (KB): 5 nM

C=C1NC(=O)[C@@H](C)NC(=O)CNC(=O)[C@H](Cc2c[nH]c3cccc(OC)c23)NC(=O)[C@H](Cc2c[nH]c3ccccc23)NC(=O)c2csc(n2)[C@@H](CO)NC(=O)CN(C)C1=O (cyclo([Dha][Sar][X2]W[Trp(4-OMe)]G[dA]))
IC50 (KB): 5 nM

CC1=C(/C=C/C=C\C=C\[C@@H](C)[C@@H](O)/C(C)=C/CC(C)C)OC(C)(O)C1=O (some centres not stated)
IC50 at 24 h [2]: 1000 nM

CCCC(=O)OCN(C(=O)[C@@H](NC(=O)[C@H]1CCCCN1C)[C@@H](C)CC)[C@H](C[C@@H](OC(C)=O)c1nc(C(=O)N[C@@H](Cc2ccccc2)C[C@H](C)C(=O)O)cs1)C(C)C
IC50 (U-937; Homo sapiens, U-937, 24 h): 0.005 nM

COCC(C)C1=NC(c2nc(/C=C/[C@H](OC)[C@@H](C)/C(=C\C(=O)OC)OC)cs2)CS1 (some centres not stated)
MIC (Botrytis cinerea): 0.04 µg/mL (≈ 0.088 µM)
MIC [3]: 0.04 µg/mL (≈ 0.088 µM)
MIC [4]: 0.0947 µM (≈ 0.0431 µg/mL)

O=Cc1ccnc2ccccc12
MIC [3]: < 1 µg/mL

O/N=C\c1ccnc2ccccc12
MIC [3]: < 1 µg/mL

N#CCc1c[nH]c2ccccc12
MIC [3]: < 1 µg/mL

O=C(O)c1ccnc2ccccc12
MIC [3]: < 1 µg/mL

C/C=C1/NC(=O)[C@@H]2CSC(=N2)[C@@H]2CCCN2C(=O)[C@@H](CC(C)C)NC(=O)[C@H](C)NC(=O)[C@@H](O)COC(=O)[C@H](C(C)C)N(C)C(=O)[C@H]([C@@H](C)O)NC(=O)[C@@H]2CCCN2C1=O
LD50 [1]: 2.3

C=C(NC(=O)/C(C)=C/C=C\CCCCCCC)C(=O)N/C(=C\OC)C(=O)OC
IC50 at 24 h [2]: 3100 nM

CCC(=O)OCN(C(=O)[C@@H](NC(=O)[C@H]1CCCCN1C)[C@@H](C)CC)[C@H](C[C@@H](OC(C)=O)c1nc(C(=O)N[C@@H](Cc2ccccc2)C[C@H](C)C(=O)O)cs1)C(C)C
IC50 (U-937; Homo sapiens, U-937, 24 h): 0.005 nM

O=C(CO)c1c[nH]c2ccccc12
MIC [3]: < 1 µg/mL

C=C(C)c1nc(-c2nc(/C=C/[C@H](OC)[C@@H](C)/C(=C\C(=O)OC)OC)cs2)cs1
MIC (Botrytis cinerea): 0.04 µg/mL (≈ 0.0951 µM)
MIC [3]: 0.04 µg/mL (≈ 0.0951 µM)
MIC [4]: 0.0947 µM (≈ 0.0398 µg/mL)

C=C(C)C1=NC(c2nc(/C=C/[C@H](OC)[C@@H](C)/C(=C\C(=O)OC)OC)cs2)CS1 (some centres not stated)
MIC (Botrytis cinerea): 0.04 µg/mL (≈ 0.0947 µM)
MIC [3]: 0.04 µg/mL (≈ 0.0947 µM)
MIC [4]: 0.0947 µM (≈ 0.04 µg/mL)

CCC(=O)OCN(C(=O)[C@@H](NC(=O)[C@H]1CCCCN1C)[C@@H](C)CC)[C@H](C[C@@H](OC(C)=O)c1nc(C(=O)N[C@@H](Cc2ccc(O)cc2)C[C@H](C)C(=O)O)cs1)C(C)C
IC50 (U-937; Homo sapiens, U-937, 24 h): 0.005 nM

C=C(NC(=O)/C(C)=C/C=C\CCCCC(C)C)C(=O)N/C(=C\OC)C(=O)OC
IC50 at 24 h [2]: 3100 nM

CCCC(=O)OCN(C(=O)[C@@H](NC(=O)[C@H]1CCCCN1C)[C@@H](C)CC)[C@H](C[C@@H](OC(C)=O)c1nc(C(=O)N[C@@H](Cc2ccc(O)cc2)C[C@H](C)C(=O)O)cs1)C(C)C [TUBULYSIN B]
IC50 (U-937; Homo sapiens, U-937, 24 h): 0.005 nM

CC[C@H](C)[C@H](NC(=O)[C@H]1CCCCN1C)C(=O)N(COC(C)=O)[C@H](C[C@@H](OC(C)=O)c1nc(C(=O)N[C@@H](Cc2ccccc2)C[C@H](C)C(=O)O)cs1)C(C)C
IC50 (U-937; Homo sapiens, U-937, 24 h): 0.005 nM

C=C1NC(=O)[C@@H](CC)NC(=O)CNC(=O)[C@H](Cc2c[nH]c3cccc(OC)c23)NC(=O)[C@H](Cc2c[nH]c3ccccc23)NC(=O)c2csc(n2)[C@@H](C)NC(=O)CN(C)C1=O (cyclo([Dha][Sar][dAla(ψthiazole)]W[Trp(4-OMe)]G[dAbu]))
IC50 (KB): 5 nM
IC50 (Pseudomonas aeruginosa): 0.05 µg/mL (≈ 0.0596 µM)

COC(=O)/C=C(/OC)[C@H](C)[C@H](/C=C/c1csc(C2CSC(C3(C)CO3)=N2)n1)OC (some centres not stated)
MIC (Botrytis cinerea): 0.04 µg/mL (≈ 0.0912 µM)
MIC [3]: 0.04 µg/mL (≈ 0.0912 µM)
MIC [4]: 0.0947 µM (≈ 0.0415 µg/mL)

COC(=O)/C=C(/OC)[C@H](C)[C@H](/C=C/c1csc(C2CSC(C(C)C)=N2)n1)OC (some centres not stated)
MIC (Botrytis cinerea): 0.04 µg/mL (≈ 0.0942 µM)
MIC [3]: 0.04 µg/mL (≈ 0.0942 µM)
MIC [4]: 0.0947 µM (≈ 0.0402 µg/mL)

C=C1NC(=O)[C@@H](C)NC(=O)CNC(=O)[C@H](Cc2c(C)[nH]c3cccc(OC)c23)NC(=O)[C@H](Cc2c[nH]c3ccccc23)NC(=O)c2csc(n2)[C@@H](C)NC(=O)CN(C)C1=O (cyclo(W[X1]G[dA][Dha][Sar][dAla(ψthiazole)]))
IC50 (KB): 5 nM

C=C(NC(=O)/C(C)=C/C=C\CCCCCC(C)C)C(=O)N/C(=C\OC)C(=O)OC
IC50 at 24 h [2]: 3100 nM

CC[C@H](C)[C@H](NC(=O)[C@H]1CCCCN1C)C(=O)N(COC(=O)CC(C)C)[C@H](C[C@@H](OC(C)=O)c1nc(C(=O)N[C@@H](Cc2ccc(O)cc2)C[C@H](C)C(=O)O)cs1)C(C)C [TUBULYSIN-A]
IC50 (U-937; u-937): 0.005 nM

C=C/C=C(\C)[C@@H](O)CC[C@@H](C)/C=C/[C@@H]1CC[C@@H](C)C(=O)CC(=O)N[C@@H](C)CCC(=O)[C@@H](C)[C@H](O)[C@@H](C)/C=C(\C)C(=O)O1
MIC (Clostridium perfringens): 0.78 µg/mL (≈ 1.33 µM)

C/C=C1\NC(=O)[C@H]2CSC(=N2)[C@@H]2C[C@@H](C)N2C(=O)[C@@H](CC(C)C)NC(=O)[C@H](C)NC(=O)[C@@H](O)COC(=O)[C@H](C(C)C)N(C)C(=O)[C@H]([C@@H](C)O)NC(=O)[C@@H]2CCCN2C1=O
LD50 [1]: 2.3

C=C1NC(=O)[C@@H](C)NC(=O)CNC(=O)[C@H](Cc2c[nH]c3cccc(OC)c23)NC(=O)[C@H](Cc2c[nH]c3ccccc23)NC(=O)c2csc(n2)[C@@H](C)NC(=O)CN(C)C1=O (cyclo(W[Trp(4-OMe)]G[dA][Dha][Sar][dAla(ψthiazole)]))
IC50 (KB): 5 nM

C=C1NC(=O)[C@@H](C)NC(=O)CNC(=O)[C@H](Cc2c[nH]c3cccc(OC)c23)NC(=O)[C@H](Cc2c[nH]c3ccccc23)NC(=O)c2csc(n2)CNC(=O)CN(C)C1=O (cyclo([Dha][Sar][GlyΨ(Thz)]W[Trp(4-OMe)]G[dA]))
IC50 (KB): 5 nM

CC1=C(C[C@H](O)/C=C\C=C\[C@@H](C)[C@@H](O)/C(C)=C/CC(C)C)OC(C)(O)C1=O (some centres not stated)
IC50 at 24 h [2]: 1000 nM

COC(=O)/C=C(/OC)[C@H](C)[C@H](/C=C/c1csc(-c2csc(C(C)=O)n2)n1)OC
MIC (Botrytis cinerea): 0.04 µg/mL (≈ 0.0947 µM)
MIC [3]: 0.04 µg/mL (≈ 0.0947 µM)
MIC [4]: 0.0947 µM (≈ 0.04 µg/mL)

O/N=C/Cc1c[nH]c2ccccc12
MIC [3]: < 1 µg/mL

OCc1ccnc2ccccc12
MIC [3]: < 1 µg/mL

COC(=O)/C=C(/OC)[C@H](C)[C@H](/C=C/c1csc(-c2csc(C3(C)CO3)n2)n1)OC (some centres not stated)
MIC (Botrytis cinerea): 0.04 µg/mL (≈ 0.0916 µM)
MIC [3]: 0.04 µg/mL (≈ 0.0916 µM)
MIC [4]: 0.0947 µM (≈ 0.0413 µg/mL)

CC[C@H](C)[C@H](NC(=O)[C@H]1CCCCN1C)C(=O)N(COC(C)=O)[C@H](C[C@@H](OC(C)=O)c1nc(C(=O)N[C@@H](Cc2ccc(O)cc2)C[C@H](C)C(=O)O)cs1)C(C)C
IC50 (U-937; Homo sapiens, U-937, 24 h): 0.005 nM
